Laboratory results taken from patent US20220152033A1, “COMPOSITIONS AND METHODS FOR DEEP DERMAL DRUG DELIVERY” (ARCUTIS BIOTHERAPEUTICS, INC., priority 2020, published 2022).

Key:
[1] = Particle size distribution of SHR0302 by laser diffraction (Malvern, Hydro MV); format: physicochemical; conditions: SHR0302 used in Example 1; wet dispersion in ethyl acetate; FIG. 1
Excerpt: In the pharmaceutical compositions of the present invention, the active ingredient is present as small particles. Particle size of the drug can be assessed using laser diffraction methods. Laser diffraction is recognized by standards and guidance agencies including ISO and ASTM and is widely used to determine particle size distributions. In conducting the assessment, the sample is passed through a laser beam, which results in laser light scattered at a range of angles. Detectors placed at fixed angles measure the intensity of light scattered at that position. A mathematical model is then applied to generate a particle size distribution. The particle size values reported herein are determined by using a liquid or wet dispersion method.
In particle size determinations, the median value is defined as the value where half of the population resides above this point, and half resides below this point. For particle size distributions the median is called the D50. The D50 is the size that splits the distribution with half above and half below this diameter. The distribution width may also be characterized by citing one, two or three values on the x-axis, typically some combination of the D10, D50, and D90. The D50, the median, has been defined above as the diameter where half of the population lies below this value. Similarly, 90 percent of the distribution lies below the D90, and 10 percent of the population lies below the D10.
A pharmaceutical composition comprising 3% SHR0302 suspended in dimethicone was prepared. The primary particle size distribution of the SHR0302 is characterized by a D10 value of less than about 0.25 μm; a D50 value of less than about 0.7 μm; and a D90 value of less than about 5 μm. The pharmaceutical composition was a transparent solution due to the particles being too small to scatter visible light. A Malvern Metasizer Model 3000 using the Hydro MV dispersion unit was used to determine the particle size distribution profile of SHR0302. […]

[2] = biological target: JAK1 (Homo sapiens, UniProt P23458); conditions: cited from earlier work
[3] = system: women with acne; conditions: orally administered; cited from earlier work

Sequence of JAK1 (P23458 whole entry, species assumed): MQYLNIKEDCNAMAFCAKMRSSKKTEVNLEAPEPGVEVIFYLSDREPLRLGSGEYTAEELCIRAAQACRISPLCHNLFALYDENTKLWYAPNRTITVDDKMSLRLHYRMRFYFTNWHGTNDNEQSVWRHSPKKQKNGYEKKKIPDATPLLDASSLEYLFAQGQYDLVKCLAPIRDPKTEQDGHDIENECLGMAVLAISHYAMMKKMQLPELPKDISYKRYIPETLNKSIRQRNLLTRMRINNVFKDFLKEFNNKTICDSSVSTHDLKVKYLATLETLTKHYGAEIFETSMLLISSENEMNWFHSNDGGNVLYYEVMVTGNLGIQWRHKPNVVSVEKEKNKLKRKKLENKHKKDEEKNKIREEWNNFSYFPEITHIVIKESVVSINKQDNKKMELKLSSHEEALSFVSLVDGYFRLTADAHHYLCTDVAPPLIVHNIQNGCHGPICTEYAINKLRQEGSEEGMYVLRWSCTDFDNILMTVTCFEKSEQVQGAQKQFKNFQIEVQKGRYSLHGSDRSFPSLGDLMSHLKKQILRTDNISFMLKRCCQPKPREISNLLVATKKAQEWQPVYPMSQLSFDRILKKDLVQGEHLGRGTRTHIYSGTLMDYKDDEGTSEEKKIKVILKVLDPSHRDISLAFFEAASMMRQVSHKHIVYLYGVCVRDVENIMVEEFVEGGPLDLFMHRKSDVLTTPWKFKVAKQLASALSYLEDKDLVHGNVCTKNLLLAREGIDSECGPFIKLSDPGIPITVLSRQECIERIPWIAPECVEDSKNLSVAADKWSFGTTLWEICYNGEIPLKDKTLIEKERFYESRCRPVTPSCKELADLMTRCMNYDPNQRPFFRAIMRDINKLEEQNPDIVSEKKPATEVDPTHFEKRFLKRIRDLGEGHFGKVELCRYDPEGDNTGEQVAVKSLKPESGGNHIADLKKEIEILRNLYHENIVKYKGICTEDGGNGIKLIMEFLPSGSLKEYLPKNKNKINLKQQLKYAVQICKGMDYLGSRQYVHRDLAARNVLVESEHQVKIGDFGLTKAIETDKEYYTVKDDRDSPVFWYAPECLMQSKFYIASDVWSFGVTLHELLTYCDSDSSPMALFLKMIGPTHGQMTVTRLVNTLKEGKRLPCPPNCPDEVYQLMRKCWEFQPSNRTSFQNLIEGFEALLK

| primary particle size distribution D10 value [1] | primary particle size distribution D50 value [1] | primary particle size distribution D90 value [1] | Compound | selectivity for JAK1 over JAK2 [2] | efficacy in the treatment of women with acne [3] |
| --- | --- | --- | --- | --- | --- |
| less than 0.25 μm | less than 0.7 μm | less than 5 μm | COc1nsc(NC(=O)N2C[C@H]3C[C@H](N(C)c4ncnc5[nH]ccc45)C[C@H]3C2)n1 [SHR0302, (3aR,5S,6aS)—N-(3-methoxyl-1,2,4-thiadiazol-5-yl)-5-(methyl(7H-pyrrolo[2,3-d]pyrimidin-4-yl)amino)hexahydrocyclopenta[c]pyrrole-2(1H)-carboxamide] | high selectively for JAK1 over JAK2 |  |
|  |  |  | CC(=O)S[C@@H]1CC2=CC(=O)CC[C@]2(C)[C@H]2CC[C@@]3(C)[C@@H](CC[C@@]34CCC(=O)O4)[C@H]12 [spironolactone, 17-hydroxy-7α-mercapto-3-oxo-17α-pregn-4-ene-21-carboxylic acid γ-lactone acetate] |  | efficacious |
